Data: ChEMBL document CHEMBL1201862, “PubChem BioAssay data set” (2004)
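Grown in 96-well plates, cells were treated for 48 hours with each compound at five concentrations. Insufficient inhibition: endpoint recorded as highest concentration tested. GI50 = concentration required for 50% inhibition of growth.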 Activity calls are given as the source filed them. Cut-off read from the data, not from the text of the source: active = GI50 up to about 1.1 µM and inactive = higher. Where a SMILES comes first, the peptide text is derived from it. The star is where a group is joined. ONb = O=[N+]([O-])c1ccc(CO*)cc1; Boc = CC(C)(C)OC(=O)*

Columns and labels:
Assay in all cases: inhibition of tumour cell growth, NCI panel, 48 h
[1] = test system: SNB-75
[2] = test system: SR
[3] = test system: HOP-62
[4] = test system: EKVX
[5] = test system: OVCAR-8
[6] = test system: M14
[7] = test system: ACHN
[8] = test system: OVCAR-4
[9] = test system: SK-MEL-28
[10] = test system: T47D
[11] = test system: SF-295
[12] = test system: UACC-257
[13] = test system: MDA-MB-231
[14] = test system: Malme-3M
[15] = test system: RXF 393
[16] = test system: HCT-116
[17] = test system: DU-145
[18] = test system: HL-60
[19] = test system: MOLT-4
[20] = test system: HCC 2998

SMILES | GI50 [1] | GI50 [2] | GI50 [3] | GI50 [4] | GI50 [5] | GI50 [6] | GI50 [7] | GI50 [8] | GI50 [9] | GI50 [10] | GI50 [11] | GI50 [12] | GI50 [13] | GI50 [14] | GI50 [15] | GI50 [16] | GI50 [17] | GI50 [18] | GI50 [19] | GI50 [20]
COc1ccc(NCc2c(O)ccc3ccccc23)cc1 | > 100 µM (inactive) | 17.1 µM (inactive) | 68.2 µM (inactive) | 18.9 µM (inactive) | 15.8 µM (inactive) | 14 µM (inactive) | 13.4 µM (inactive) | 43.1 µM (inactive) | 27.4 µM (inactive) | 17.4 µM (inactive) | 43 µM (inactive) | 18.4 µM (inactive) | 30 µM (inactive) | 20.7 µM (inactive) | 16.5 µM (inactive) | 33.8 µM (inactive) | 76 µM (inactive) |  |  | 
CCOC(=O)c1cc2c3c(c(C(C)=O)c(O)c2[nH]1)N(C(C)=O)CC3 | > 100 µM (inactive) | 50.6 µM (inactive) | > 100 µM (inactive) | 61 µM (inactive) | 38.1 µM (inactive) | 76.6 µM (inactive) | 27.5 µM (inactive) |  | 34.4 µM (inactive) | 46.7 µM (inactive) | 52.7 µM (inactive) | > 100 µM (inactive) | > 100 µM (inactive) | 64.3 µM (inactive) | 21.7 µM (inactive) | 68.4 µM (inactive) | 82.6 µM (inactive) | 76.2 µM (inactive) | 27.7 µM (inactive) | 
NCCC1(N)CCNCC1 | 13.7 µM (inactive) | > 100 µM (inactive) |  | > 100 µM (inactive) | > 100 µM (inactive) | > 100 µM (inactive) | > 100 µM (inactive) | > 100 µM (inactive) | 48.4 µM (inactive) | > 100 µM (inactive) | > 100 µM (inactive) | > 100 µM (inactive) | > 100 µM (inactive) | > 100 µM (inactive) | > 100 µM (inactive) | > 100 µM (inactive) | > 100 µM (inactive) | > 100 µM (inactive) | > 100 µM (inactive) | 
C=C1c2ccccc2C(=O)c2c1c1c(C(=O)OC)c(O)ccc1n2Cc1ccccc1 | 0.264 µM (active) | 0.132 µM (active) | 0.516 µM (active) | 0.9 µM (active) | 0.245 µM (active) | 0.314 µM (active) | 0.454 µM (active) | 0.558 µM (active) | 0.31 µM (active) | 0.653 µM (active) | 0.574 µM (active) | 1.71 µM (inactive) | 0.355 µM (active) | 0.445 µM (active) | 0.267 µM (active) | 0.557 µM (active) | 0.242 µM (active) | 0.265 µM (active) | 0.219 µM (active) | 
O=[N+]([O-])c1ccc(S(=O)(=O)n2c3ccc(Br)cc3c3nc4ccccc4nc32)cc1 | 77.6 µM (inactive) | > 100 µM (inactive) | > 100 µM (inactive) |  | > 100 µM (inactive) | > 100 µM (inactive) | > 100 µM (inactive) | > 100 µM (inactive) | > 100 µM (inactive) | > 100 µM (inactive) | > 100 µM (inactive) | > 100 µM (inactive) | > 100 µM (inactive) |  | > 100 µM (inactive) | > 100 µM (inactive) | > 100 µM (inactive) |  | > 100 µM (inactive) | > 100 µM (inactive)
CSc1nncc2[nH]cnc12 | > 100 µM (inactive) | > 100 µM (inactive) | > 100 µM (inactive) | > 100 µM (inactive) | > 100 µM (inactive) | > 100 µM (inactive) | > 100 µM (inactive) |  | > 100 µM (inactive) | > 100 µM (inactive) | > 100 µM (inactive) | > 100 µM (inactive) | > 100 µM (inactive) |  | > 100 µM (inactive) | > 100 µM (inactive) | > 100 µM (inactive) | > 100 µM (inactive) | > 100 µM (inactive) | 
C/C=C(\C)c1cc(=O)c2c(C)cc3c(c2o1)C(OC)(OC(C)=O)c1c(O)c(C2CC(C)(N(C)C)C(OC(C)=O)C(C)O2)cc(C2CC(N(C)C)C(OC(C)=O)C(C)O2)c1C3=O (stereo unspecified) | 1.69 µM (inactive) | 0.0251 µM (active) | 0.621 µM (active) | 1.07 µM (active) | 0.552 µM (active) | 1.24 µM (inactive) | 0.202 µM (active) |  | 3.77 µM (inactive) | 3.74 µM (inactive) | 0.942 µM (active) | 1.55 µM (inactive) | 0.178 µM (active) | 0.544 µM (active) | 1.37 µM (inactive) | 0.286 µM (active) | 0.497 µM (active) |  | 0.277 µM (active) | 0.0218 µM (active)
CC(C)=CCC/C(C)=C/CCC(C(=O)COCc1ccccc1)P1(=O)OC(C)(C)CN1C(C)(C)C (stereo unspecified) | 28.9 µM (inactive) | 21.8 µM (inactive) | > 100 µM (inactive) | > 100 µM (inactive) |  | 93.5 µM (inactive) | > 100 µM (inactive) | 23.9 µM (inactive) | 62.1 µM (inactive) | 31.8 µM (inactive) | 46.6 µM (inactive) | 84.1 µM (inactive) | > 100 µM (inactive) |  | 87.5 µM (inactive) | 33.1 µM (inactive) | 81.7 µM (inactive) |  | 15.9 µM (inactive) | 
CC(C)CC(NC(=O)OC(C)(C)C)C(=O)NC(CCC(=O)OCc1ccc([N+](=O)[O-])cc1)C(=O)OCc1ccc([N+](=O)[O-])cc1 (stereo not drawn) (Boc-Leu-Glu(ONb)-ONb; configuration not given here) | 16.6 µM (inactive) | 13.8 µM (inactive) | > 100 µM (inactive) | 49.2 µM (inactive) | 37.1 µM (inactive) | 26.2 µM (inactive) | 46.6 µM (inactive) | > 100 µM (inactive) | 15.8 µM (inactive) | 92.3 µM (inactive) | 43.4 µM (inactive) | 43.8 µM (inactive) | > 100 µM (inactive) | > 100 µM (inactive) |  | 37.5 µM (inactive) | 13.5 µM (inactive) | 4.05 µM (inactive) | 13 µM (inactive) | 23 µM (inactive)
O=c1cc(N2CCOCC2)oc2c(-c3ccccc3)cccc12 [LY-294002] | 1.11 µM (active) | 3.36 µM (inactive) | 4.59 µM (inactive) | 3.49 µM (inactive) | 4.58 µM (inactive) | 11.1 µM (inactive) | 7.45 µM (inactive) | 2.7 µM (inactive) | 16.9 µM (inactive) | 2.49 µM (inactive) | 6.53 µM (inactive) | 14.5 µM (inactive) | 3.13 µM (inactive) | 0.286 µM (active) | 2.77 µM (inactive) | 12.6 µM (inactive) | 12.4 µM (inactive) | 14.7 µM (inactive) | 11.4 µM (inactive) | 
NCCS(=O)(=O)O [TAURINE] | > 100 µM (inactive) | > 100 µM (inactive) | > 100 µM (inactive) | > 100 µM (inactive) | > 100 µM (inactive) | > 100 µM (inactive) | > 100 µM (inactive) |  | > 100 µM (inactive) | > 100 µM (inactive) | > 100 µM (inactive) | > 100 µM (inactive) | > 100 µM (inactive) | > 100 µM (inactive) |  | > 100 µM (inactive) | > 100 µM (inactive) | > 100 µM (inactive) | > 100 µM (inactive) | > 100 µM (inactive)
